Legend:
BTK enzyme = target: T1, BTK enzyme (Homo sapiens, UniProt Q06187); assay: In vitro BTK kinase assay: BTK-POLYGAT-LS assay; type: biochemical; conditions: ATP 10 μM, read-out: IC50 (10uMATP)
T1 construct: purchased Upstate 14-552
Outline: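 Human BTK activity was measured with final 10 μM ATP and 100 nM polyGAT substrate in pH 7.5 Tris buffer with 10 mM MgCl2, DTT, Triton X-100 and casein.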

[1] = target: BTK (phospho-BTK) in human whole blood (Homo sapiens, UniProt Q06187); assay: In vitro PD assay in human whole blood (pBTK assay)
BTK (phospho-BTK) in human whole blood, sequence (Q06187 whole entry): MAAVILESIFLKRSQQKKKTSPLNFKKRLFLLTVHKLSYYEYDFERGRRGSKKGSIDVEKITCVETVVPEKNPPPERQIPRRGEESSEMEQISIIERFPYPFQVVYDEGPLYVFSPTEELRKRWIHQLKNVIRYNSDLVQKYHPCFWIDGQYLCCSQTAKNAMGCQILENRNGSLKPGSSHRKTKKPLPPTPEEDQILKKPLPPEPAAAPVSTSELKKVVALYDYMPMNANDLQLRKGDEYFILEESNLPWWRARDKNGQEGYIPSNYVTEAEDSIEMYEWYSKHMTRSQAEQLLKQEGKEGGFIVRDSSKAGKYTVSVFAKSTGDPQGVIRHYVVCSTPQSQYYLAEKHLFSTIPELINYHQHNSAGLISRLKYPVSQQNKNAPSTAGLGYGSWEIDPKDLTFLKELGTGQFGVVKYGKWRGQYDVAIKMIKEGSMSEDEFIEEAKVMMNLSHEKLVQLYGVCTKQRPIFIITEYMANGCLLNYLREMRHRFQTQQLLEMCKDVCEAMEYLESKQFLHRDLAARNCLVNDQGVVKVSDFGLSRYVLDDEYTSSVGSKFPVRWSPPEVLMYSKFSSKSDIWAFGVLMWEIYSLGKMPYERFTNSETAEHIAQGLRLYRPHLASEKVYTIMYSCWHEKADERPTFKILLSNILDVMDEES

T1 sequence (Q06187 whole entry): as above

| IC50 (BTK enzyme) [µM] | IC50 [1] [µM] | Structure (SMILES) |
| --- | --- | --- |
| < 0.01 | 1.5 to 10 | Cn1cc(Nc2nccc(-c3ccc4c(c3)CCCC4NC(=O)c3cnc(C(C)(C)C)s3)n2)cn1 (stereo not drawn) [Example I-91, 2-(tert-butyl)-N-(6-(2-((1-methyl-1H-pyrazol-4-yl)amino)pyrimidin-4-yl)-1,2,3,4-tetrahydronaphthalen-1-yl)thiazole-5-carboxamide] |
| < 0.01 | 0.5 to 1.5 | Cn1cc(Nc2nccc(-c3ccc4c(c3)CCCC4NC(=O)c3cc4c(s3)CCOC4)n2)cn1 (stereo not drawn) [Example I-95, N-(6-(2-((1-methyl-1H-pyrazol-4-yl)amino)pyrimidin-4-yl)-1,2,3,4-tetrahydronaphthalen-1-yl)-6,7-dihydro-4H-thieno[3,2-c]pyran-2-carboxamide] |
| < 0.01 | 1.5 to 10 | Cn1cc(Nc2nccc(-c3ccc4c(c3)NCCC4NC(=O)c3cnc(C(C)(C)C)s3)n2)cn1 (stereo not drawn) [Example I-99, 2-(tert-butyl)-N-(7-(2-((1-methyl-1H-pyrazol-4-yl)amino)pyrimidin-4-yl)-1,2,3,4-tetrahydroquinolin-4-yl)thiazole-5-carboxamide] |
| < 0.01 | 1.5 to 10 | Cc1cc(-c2ccnc(Nc3cnn(C)c3)n2)ccc1C(CO)NC(=O)c1cnc(C(C)(C)C)s1 (stereo not drawn) [Example I-108, 2-(tert-butyl)-N-(2-hydroxy-1-(2-methyl-4-(2-((1-methyl-1H-pyrazol-4-yl)amino)pyrimidin-4-yl)phenyl)ethyl)thiazole-5-carboxamide] |
| < 0.01 | 1.5 to 10 | Cc1cc(-c2nc(Nc3cnn(C)c3)ncc2F)ccc1CNC(=O)c1cnc(C(C)(C)C)s1 [Example I-111, 2-(tert-butyl)-N-(4-(5-fluoro-2-((1-methyl-1H-pyrazol-4-yl)amino)pyrimidin-4-yl)-2-methylbenzyl)thiazole-5-carboxamide] |
| < 0.01 | 0.5 to 1.5 | Cn1cc(Nc2nccc(-c3ccc(CNC(=O)c4cc5c(s4)CCOC5)c(C(F)(F)F)c3)n2)cn1 [Example I-115, N-(4-(2-((1-methyl-1H-pyrazol-4-yl)amino)pyrimidin-4-yl)-2-(trifluoromethyl)benzyl)-6,7-dihydro-4H-thieno[3,2-c]pyran-2-carboxamide] |
| < 0.01 | 0.5 to 1.5 | Cn1cc(Nc2nccc(-c3ccc(CNC(=O)c4cnc(C(C)(C)C)s4)c(C(F)(F)F)c3)n2)cn1 [Example I-116, 2-(tert-butyl)-N-(4-(2-((1-methyl-1H-pyrazol-4-yl)amino)pyrimidin-4-yl)-2-(trifluoromethyl)benzyl)thiazole-5-carboxamide] |
| < 0.01 | < 0.5 | Cn1cc(Nc2nccc(-c3cc(Cl)c(CNC(=O)c4cnc(C(C)(C)C)s4)cc3F)n2)cn1 [Example I-118, 2-(tert-butyl)-N-(2-chloro-5-fluoro-4-(2-((1-methyl-1H-pyrazol-4-yl)amino)pyrimidin-4-yl)benzyl)thiazole-5-carboxamide] |
| < 0.01 | 0.5 to 1.5 | Cc1cc(-c2ccnc(Nc3cnn(CCO)c3)n2)ccc1CNC(=O)c1cc2c(s1)CCOC2 [Example I-120, N-(4-(2-((1-(2-hydroxyethyl)-1H-pyrazol-4-yl)amino)pyrimidin-4-yl)-2-methylbenzyl)-6,7-dihydro-4H-thieno[3,2-c]pyran-2-carboxamide] |
| < 0.01 | < 0.5 | Cc1cc(-c2cc(Nc3cc4n(n3)CCN(C)C4)ncn2)ccc1CNC(=O)N1CC(OC(C)C)C1 [Example I-121, 3-isopropoxy-N-(2-methyl-4-(6-((5-methyl-4,5,6,7-tetrahydropyrazolo[1,5-a]pyrazin-2-yl)amino)pyrimidin-4-yl)benzyl)azetidine-1-carboxamide] |
| < 0.01 | < 0.5 | Cc1cc(-c2ccnc(Nc3cnn([C@@H]4CCNC4)c3)n2)ccc1CNC(=O)c1cnc(C(C)(C)C)s1 [Example I-122, (R)-2-(tert-butyl)-N-(2-methyl-4-(2-((1-(pyrrolidin-3-yl)-1H-pyrazol-4-yl)amino)pyrimidin-4-yl)benzyl)thiazole-5-carboxamide] |
| < 0.01 | < 0.5 | Cc1cc(-c2ccnc(Nc3cnn([C@@H]4CCN(C)C4)c3)n2)ccc1CNC(=O)c1cnc(C(C)(C)C)s1 [Example I-123, (R)-2-(tert-butyl)-N-(2-methyl-4-(2-((1-(1-methylpyrrolidin-3-yl)-1H-pyrazol-4-yl)amino)pyrimidin-4-yl)benzyl)thiazole-5-carboxamide] |
| < 0.01 | < 0.5 | Cc1cc(-c2ccnc(Nc3cnn([C@H]4CCNC4)c3)n2)ccc1CNC(=O)c1cnc(C(C)(C)C)s1 [Example I-124, (S)-2-(tert-butyl)-N-(2-methyl-4-(2-((1-(pyrrolidin-3-yl)-1H-pyrazol-4-yl)amino)pyrimidin-4-yl)benzyl)thiazole-5-carboxamide] |
| < 0.01 | < 0.5 | Cc1cc(-c2ccnc(Nc3cnn([C@H]4CCN(C)C4)c3)n2)ccc1CNC(=O)c1cnc(C(C)(C)C)s1 [Example I-125, (S)-2-(tert-butyl)-N-(2-methyl-4-(2-((1-(1-methylpyrrolidin-3-yl)-1H-pyrazol-4-yl)amino)pyrimidin-4-yl)benzyl)thiazole-5-carboxamide] |
| < 0.01 | < 0.5 | Cc1cc(-c2ccnc(Nc3cnn(C[C@@H]4CNCCO4)c3)n2)ccc1CNC(=O)c1cnc(C(C)(C)C)s1 [Example I-126, (S)-2-(tert-butyl)-N-(2-methyl-4-(2-((1-(morpholin-2-ylmethyl)-1H-pyrazol-4-yl)amino)pyrimidin-4-yl)benzyl)thiazole-5-carboxamide] |
| < 0.01 | 0.5 to 1.5 | Cc1cc(-c2ccnc(Nc3cnn(C[C@H](O)CN)c3)n2)ccc1CNC(=O)c1cnc(C(C)(C)C)s1 [Example I-127, (R)—N-(4-(2-((1-(3-amino-2-hydroxypropyl)-1H-pyrazol-4-yl)amino)pyrimidin-4-yl)-2-methylbenzyl)-2-(tert-butyl)thiazole-5-carboxamide] |
| < 0.01 | < 0.5 | Cc1cc(-c2ccnc(Nc3cnn(C[C@H]4CNCCO4)c3)n2)ccc1CNC(=O)c1cnc(C(C)(C)C)s1 [Example I-128, (R)-2-(tert-butyl)-N-(2-methyl-4-(2-((1-(morpholin-2-ylmethyl)-1H-pyrazol-4-yl)amino)pyrimidin-4-yl)benzyl)thiazole-5-carboxamide] |
| < 0.01 | 0.5 to 1.5 | Cc1cc(-c2ccnc(Nc3cnn(C[C@@H](O)CN)c3)n2)ccc1CNC(=O)c1cnc(C(C)(C)C)s1 [Example I-129, (S)—N-(4-(2-((1-(3-amino-2-hydroxypropyl)-1H-pyrazol-4-yl)amino)pyrimidin-4-yl)-2-methylbenzyl)-2-(tert-butyl)thiazole-5-carboxamide] |
| < 0.01 | < 0.5 | Cc1cc(-c2ccnc(Nc3cnn(C[C@H](N)C(=O)O)c3)n2)ccc1CNC(=O)c1cnc(C(C)(C)C)s1 [Example I-130, (S)-2-amino-3-(4-((4-(4-((2-(tert-butyl)thiazole-5-carboxamido)methyl)-3-methylphenyl)pyrimidin-2-yl)amino)-1H-pyrazol-1-yl)propanoic acid] |
| < 0.01 | 0.5 to 1.5 | Cc1cc(-c2ccnc(Nc3cnn(C[C@H](N)CO)c3)n2)ccc1CNC(=O)c1cnc(C(C)(C)C)s1 [Example I-131, (S)—N-(4-(2-((1-(2-amino-3-hydroxypropyl)-1H-pyrazol-4-yl)amino)pyrimidin-4-yl)-2-methylbenzyl)-2-(tert-butyl)thiazole-5-carboxamide] |
| < 0.01 | 1.5 to 10 | Cc1cc(-c2ccnc(Nc3cnn(C[C@@H](N)C(=O)O)c3)n2)ccc1CNC(=O)c1cnc(C(C)(C)C)s1 [Example I-132, (R)-2-amino-3-(4-((4-(4-((2-(tert-butyl)thiazole-5-carboxamido)methyl)-3-methylphenyl)pyrimidin-2-yl)amino)-1H-pyrazol-1-yl)propanoic acid] |
| < 0.01 | 1.5 to 10 | Cc1cc(-c2ccnc(N)n2)ccc1CNC(=O)c1cnc(C(C)(C)C)s1 [Example I-135, N-(4-(2-aminopyrimidin-4-yl)-2-methylbenzyl)-2-(tert-butyl)thiazole-5-carboxamide] |
| < 0.01 | 1.5 to 10 | Cc1cc(-c2ccnc(N)n2)ccc1CNC(=O)c1cc2c(s1)CCCC2 [Example I-142, N-(4-(2-aminopyrimidin-4-yl)-2-methylbenzyl)-4,5,6,7-tetrahydrobenzo[b]thiophene-2-carboxamide] |
| < 0.01 | < 0.5 | CCn1cc(Nc2nccc(-c3ccc4c(c3)CCCCC4NC(=O)N3CC(OC(C)C)C3)n2)cn1 (stereo not drawn) [Example I-166, N-(2-(2-((1-ethyl-1H-pyrazol-4-yl)amino)pyrimidin-4-yl)-6,7,8,9-tetrahydro-5H-benzo[7]annulen-5-yl)-3-isopropoxyazetidine-1-carboxamide] |
| < 0.01 | < 0.5 | CC(C)OC1CN(C(=O)NC2CCCCc3cc(-c4ccnc(Nc5cnn(C(C)C)c5)n4)ccc32)C1 (stereo not drawn) [Example I-167, 3-isopropoxy-N-(2-(2-((1-isopropyl-1H-pyrazol-4-yl)amino)pyrimidin-4-yl)-6,7,8,9-tetrahydro-5H-benzo[7]annulen-5-yl)azetidine-1-carboxamide] |

| Structure (SMILES) | IC50 (BTK enzyme) [µM] | IC50 [1] [µM] |
| --- | --- | --- |
| Cn1cc(Nc2nccc(-c3ccc4c(c3)CCCCC4NC(=O)N3CC(OC(C)(C)C)C3)n2)cn1 (stereo not drawn) [Example I-163, 3-(tert-butoxy)-N-(2-(2-((1-methyl-H-pyrazol-4-yl)amino)pyrimidin-4-yl)-6,7,8,9-tetrahydro-5H-benzo[7]annulen-5-yl)azetidine-1-carboxamide] | < 0.01 | < 0.5 |
| Cn1cc(Nc2nccc(-c3ccc4c(c3)CCCC[C@H]4NC(=O)N3CC(OC(C)(C)C)C3)n2)cn1 [Example I-164, (R)-3-(tert-butoxy)-N-(2-(2-((1-methyl-1H-pyrazol-4-yl)amino)pyrimidin-4-yl)-6,7,8,9-tetrahydro-5H-benzo[7]annulen-5-yl)azetidine-1-carboxamide] | < 0.01 | < 0.5 |
